Data as given in patent EP1257544B1, “PIPERAZINE AND PIPERIDINE DERIVATIVES FOR TREATMENT OR PREVENTION OF NEURONAL DAMAGE” (VERTEX PHARMACEUTICALS INCORPORATED, priority 2000, dated 2001).
Structures can show the parent of a compound that is named as a salt.

Each compound was assayed on Dissociated VM cells (assay: Neuroprotection Assay (NMDA-induced neuroexcitotoxic injury, high affinity 3H-dopamine uptake)). Conditions: embryonic day 15 rat ventral mesencephalic cultures, NMDA (100-400 µM) for 20 hours.
Assay type: cell-based, Sprague-Dawley rat
Description: The neuroprotective activity of the compounds of this invention may be assayed using rat embryo ventral mesencephalic cells in culture which are subsequently exposed to the glutamate receptor agonist NMDA. This assay is described in detail in the example section.
The ventral mesencephalic region was dissected out of embryonic day 15 Sprague-Dawley rat embryos (Harlan), dissociated into single cell suspension by a combination of trypsinization and trituration (Costantini et al., Neurobiol Dis., pp. 97-106 (1998). Dissociated VM cells were plated into poly-L-ornithine-coated 96-well plates at a density of 85,000 cells/well in 100 uL of DMEM supplemented with 18% heat-inactivated horse serum, 0.24% glucose, 2 mM glutamine and 50 u/ml pernicillin/streptomycin and incubated in a 5% CO2 incubator. After one day in culture (DIV1), the medium was replaced with 100 µL of a defined medium (DMEM supplemented with 1x N2 cocktail (Gibco-BRL), 0.12% glucose, 2 mM glutamine, and 50 units/ml penicillin/streptomycin) containing DMSO or various concentrations of the compounds of this invention. On DIV5, neuroexcitotoxic injury was induced by the addition of various concentrations of the glutamate receptor agonist NMDA (100-400 µM). Cultures were incubated with the neurotoxin for 20 hours and the effects of neurophilin compounds were assessed using high affinity ^3H-dopamine uptake according to a procedure published by Park and Mytilineou [Brain Res., 599, pp. 83-97 (1992)].

SMILES | EC50 [nM]
CCN1CCCC[C@H]1C(=O)N1CCN(C(c2ccccc2)c2ccccc2)CC1 [Compound 1, 1-[4-(1,1-Diphenylmethyl)piperazin-1-yl]-1-((S)-1-ethylpiperidin-2-yl)methanone] | < 100
CCN1CCCC[C@@H]1C(=O)N1CCN(C(c2ccccc2)c2ccccc2)CC1 [Compound 15, 1-[4-(1,1-Diphenylmethyl)piperazin-1-yl]-1-((R)-1-ethylpiperidin-2-yl)methanone] | < 100
CCN1CCCC[C@H]1C(=O)N1CCN(Cc2ccccc2)CC1 [Compound 16, 1-(4-Benzylpiperazin-1-yl)-1-((S)-1-ethylpiperidin-2-yl)methanone] | 100 to 500
O=C([C@@H]1CCCCN1Cc1ccccc1)N1CCN(C(c2ccccc2)c2ccccc2)CC1 [Compound 20, 1-((S)-1-Benzyl-piperidin-2-yl)-1-[4-(1,1-diphenyl-methyl)-piperazin-1-yl]-methanone] | < 100
O=C([C@@H]1CCCCN1Cc1ccc(F)cc1)N1CCN(C(c2ccccc2)c2ccccc2)CC1 [Compound 21, 1-[4-(1,1-Diphenyl-methyl)-piperazin-1-yl]-1-[(S)-1-(4-fluoro-benzyl)-piperidin-2-yl]-methanone] | < 100
CCN1CCCC[C@H]1C(=O)N1CCN(C(c2ccc(F)cc2)c2ccc(F)cc2)CC1 [Compound 25, 1-{4-[1,1-Bis-(4-fluorophenyl)methyl]-piperazin-1-yl}-1-((S)-1-ethylpiperidin-2-yl)methanone] | 100 to 500
CCN1CCCC[C@H]1C(=O)N1CCC(Cc2ccccc2)CC1 [Compound 26, 1-(4-Benzylpiperidin-1-yl)-1-((S)-1-ethylpiperidin-2-yl)methanone] | < 100
CCN1CCCC[C@H]1C(=O)N1CCC[C@H]1C(c1ccccc1)c1ccccc1 [Compound 27, 1-[(S)-2-(1,1-Diphenylmethyl)-pyrrolidin-1-yl]-1-((S)-1-ethyl-piperidin-2-yl)-methanone] | > 500
O=C([C@@H]1C[C@@H](O)CN1Cc1ccccc1)N1CCC(Cc2ccccc2)CC1 [Compound 30, ((2S,4R) -1-Benzyl-4-hydroxypyrrolidin-2-yl)-(4-benzylpiperidin-1-yl)-methanone] | < 100
CCN1CCCC[C@H]1C(=O)N1CCC(Cc2ccccc2)C1 (stereo partly drawn) [Compound 35, (3-Benzylpyrrolidin-1-yl)-((2S)-1-ethylpiperidin-2-yl)-methanone] | 100 to 500
CCN1CCCC[C@H]1C(=O)N1CCN(Cc2cccnc2)CC1 [Compound 36, ((2S)-1-Ethylpiperidin-2-yl)-(4-pyridin-3-ylmethylpiperazin-1-yl)-methanone trihydrochloride] | > 500
CCN1CCCC[C@H]1C(=O)N1CCN(Cc2ccncc2)CC1 [Compound 37, ((2S)-1-Ethylpiperidin-2-yl)-(4-pyridin-4-ylmethylpiperazin-1-yl)-methanone trihydrochloride] | > 500
CCN1CCCC[C@H]1C(=O)N1CCN(Cc2ccccn2)CC1 [Compound 38, ((2S)-1-Ethylpiperidin-2-yl)-(4-pyridin-2-ylmethylpiperazin-1-yl)-methanone trihydrochloride] | > 500
CCN1CCCC[C@@H]1C(=O)N1CCN(C(c2ccc(F)cc2)c2ccc(F)cc2)CC1 [Compound 40, {4-[Bis-(4-fluorophenyl)methyl]-piperazin-1-yl}-((2R)-1-ethylpiperidin-2-yl)-methanone] | > 500
CCN1CCCC[C@H]1C(=O)N1CCN(C(c2ccccc2)c2ccc(Cl)cc2)CC1 (stereo partly drawn) [Compound 41, {4-[(4-Chlorophenyl)phenylmethyl]-piperazin-1-yl}-((2S)-1-ethylpiperidin-2-yl)-methanone dihydrochloride] | < 100
CCN1CCCC[C@H]1C(=O)N1CCN(C(c2ccccc2)c2nc(OC)cc(OC)n2)CC1 (stereo partly shown) [Compound 43] | 100 to 500
CCN1CCCC[C@H]1C(=O)N1CCC(C(c2ccccc2)c2ccccc2)CC1 [Compound 44, (4-Benzhydrylpiperidin-1-yl)-((2S)-1-ethylpiperidin-2-yl)-methanone hydrochloride] | < 100
CCN1CCCC[C@H]1C(=O)N1CCC(C(=O)c2ccc(F)cc2)CC1 [Compound 45, ((2S)-1-Ethylpiperidin-2-yl)-[4-(4-fluorobenzoyl)-piperidin-1-yl]-methanone] | 100 to 500
CCN1CCCC[C@H]1C(=O)N1CCC(C(O)c2ccc(F)cc2)CC1 (stereo partly drawn) [Compound 46, ((2S)-1-Ethylpiperidin-2-yl)-{4-[(4-fluorophenyl)hydroxymethyl]-piperidin-1-yl}-methanone] | > 500

SMILES | EC50 [nM]
CCN1CCCC[C@H]1C(=O)N1CCC(Cc2ccc(F)cc2)CC1 [Compound 47, ((2S)-1-Ethylpiperidin-2-yl)-[4-(4-fluorobenzyl)-piperidin-1-yl]-methanone hydrochloride] | < 100
O=C([C@@H]1CCCN1Cc1ccccc1)N1CCC(Oc2ccc(F)cc2)CC1 [Compound 48, ((2S)-1-Benzylpyrrolidin-2-yl)-[4-(4-fluorophenoxy)-piperidin-1-yl] -methanone hydrochloride] | < 100
O=C([C@@H]1CCCN1Cc1ccccc1)N1CCC(Cc2ccc(F)cc2)CC1 [Compound 49, ((2S)-1-Benzylpyrrolidin-2-yl)-[4-(4-fluorobenzyl)-piperidin-1-yl]-methanone hydrochloride] | < 100
CCN1CCC[C@H]1C(=O)N1CCN(C(c2ccc(F)cc2)c2ccc(F)cc2)CC1 [Compound 50, 4-[Bis-(4-fluorophenyl)methyl]piperazin-1-yl}-((2S)-1-ethylpyrrolidin-2-yl)-methanone dihydrochloride] | 100 to 500
O=C([C@@H]1CCCN1Cc1ccccc1)N1CCC(Cc2ccccc2)CC1 [Compound 52, (4-Benzylpiperidin-1-yl)-((2S)-1-benzylpyrrolidin-2-yl)-methanone hydrochloride] | < 100
CCN1CCC[C@H]1C(=O)N1CCC(Cc2ccccc2)CC1 [Compound 53, (4-Benzylpiperidin-1-yl)-((2S)-1-ethylpyrrolidin-2-yl)-methanone hydrochloride] | 100 to 500
O=C([C@H]1CCCN1Cc1ccccc1)N1CCC(Cc2ccccc2)CC1 [Compound 55, (4-Benzylpiperidin-1-yl)-((2R)-1-benzylpyrrolidin-2-yl)methanone hydrochloride] | 100 to 500
O=C([C@@H]1CCCN1CCc1ccccc1)N1CCC(Cc2ccccc2)CC1 [Compound 57, (4-Benzylpiperidin-1-yl)-((2S)-1-phenethylpyrrolidin-2-yl)-methanone] | 100 to 500
O=C([C@@H]1CCCN1Cc1ccc(F)cc1)N1CCC(Cc2ccccc2)CC1 [Compound 58, (4-Benzylpiperidin-1-yl)-[(2S)-1-(4-fluorobenzyl)-Pyrrolidin-2-yl]-methanone hydrochloride] | < 100
O=C([C@@H]1CCCN1CCCc1ccccc1)N1CCC(Cc2ccccc2)CC1 [Compound 59, (4-Benzylpiperidin-1-yl)-[(2S)-1-(3-phenylpropyl) - pyrrolidin-2-yl]-methanone hydrochloride] | 100 to 500
COc1ccc(CN2CCCC[C@H]2C(=O)N2CCN(C(c3ccccc3)c3ccccc3)CC2)cc1 [Compound 60, (4-Benzhydrylpiperazin-1-yl)-[(2S)-1-(4-methoxybenzyl)-piperidin-2-yl]-methanone dihydrochloride] | < 100
O=C([C@@H]1CCCCN1Cc1ccccc1)N1CCN(C(c2ccc(F)cc2)c2ccc(F)cc2)CC1 [Compound 61, ((2S)-1-Benzylpiperidin-2-yl)-{4-[bis-(4-fluorophenyl)methyl]-piperazin-1-yl}-methanone] | 100 to 500
O=C([C@@H]1CCCCN1Cc1ccc(F)cc1)N1CCN(C(c2ccc(F)cc2)c2ccc(F)cc2)CC1 [Compound 62, {4-[Bis-(4-fluorophenyl)methyl]-pipezazin-1-yl}-[(2S)-1-(4-fluorobenzyl)-piperidin-2-yl]-methanone] | 100 to 500
O=C([C@@H]1CCCCN1CC1CC1)N1CCN(C(c2ccc(F)cc2)c2ccc(F)cc2)CC1 [Compound 63, {4-[Bis-(4-fluorophenyl)methyl]-piperazin-1-yl}-((2S)-1-cyclopropylmethyl-piperidin-2-yl)-methanone] | > 500
CC(C)=CCN1CCCC[C@H]1C(=O)N1CCN(C(c2ccc(F)cc2)c2ccc(F)cc2)CC1 [Compound 65, {4-[Bis-(4-fluorophenyl)methyl]-piperazin-1-yl}-[(2S)-1-(3-methyl-but-2-enyl)-piperidin-2-yl]-methanone] | < 100
CC(C)CN1CCCC[C@H]1C(=O)N1CCN(C(c2ccc(F)cc2)c2ccc(F)cc2)CC1 [Compound 66, [4-[Bis-(4-fluorophenyl)methyl]-piperazin-1-yl]-((2S)-1-(2-methylpropyl)-piperidin-2-yl)-methanone] | > 500
CCN1CCCC[C@H]1C(=O)N1CCN(Cc2ccc(Cl)c(Cl)c2)CC1 [Compound 69, [4-(3,4-Dichlorobenzyl)-piperazin-1-yl]-((2S)-1-ethylpiperidin-2-yl)-methanone dihydrochloride] | < 100
CCN1CCCC[C@H]1C(=O)N1CCN(Cc2ccc3c(c2)OCO3)CC1 [Compound 71, (4-Benzo[1,3]dioxol-5-ylmethylpiperazin-1-yl)-((2S)-1-ethylpiperidin-2-yl)-methanone dihydrochloride] | > 500
